Patent EP2818471A1, “Nitrogen bicyclic compounds as inhibitors for Scyl1 and Grk5” (Max-Planck-Gesellschaft zur Förderung der Wissenschaften …, priority 2013, dated 2014)

Tested on: beta-TC6 cells
Test: Insulin HTRF assay, relative activity Ar normalized to sunitinib
Type: cell-based
Conditions: Mus musculus, normalized to positive control sunitinib (5 µM = 100%), Table 10
Method in brief: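 Relative activity Ar was scaled between 0% and 100% controls, with sunitinib at 5 µM f.c. as reference. Insulin released by beta-TC6 cells was quantified by sandwich HTRF (Eu-cryptate/XL665 antibodies, 120 min RT). Cells had been seeded 24 or 48 h, then treated 2–4 h at 37°C in induction buffer, 0.5% DMSO.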

SMILES	Emax [%]
CSc1ccc(-c2cn3c(-c4cccc(CO)c4)cnc3cn2)cc1 [compound 377, [3-[6-(4-methylsulfanylphenyl)imidazo[1,2-a]pyrazin-3-yl]phenyl]methanol]	20 to 50
CCOc1cccc(-c2cn3c(-c4cccc(CO)c4)cnc3cn2)c1 [compound 378, [3-[6-(3-ethoxyphenyl)imidazo[1,2-a]pyrazin-3-yl]phenyl]methanol]	20 to 50
OCc1cccc(-c2cnc3cnc(-c4cccs4)cn23)c1 [compound 379, [3-[6-(2-thienyl)imidazo[1,2-a]pyrazin-3-yl]phenyl]methanol]	20 to 50
CC(C)Oc1cccc(-c2cn3c(-c4cccc(CO)c4)cnc3cn2)c1 [compound 380, [3-[6-(3-isopropoxyphenyl)imidazo[1,2-a]pyrazin-3-yl]phenyl]methanol]	20 to 50
COc1ccc(-c2cnc3cnc(-c4ccc(N5CCN(C)CC5)cc4)cn23)cn1 [compound 381, 3-(6-methoxy-3-pyridyl)-6-[4-(4-methylpiperazin-1-yl)phenyl]imidazo[1,2-a]pyrazine]	20 to 50
COc1ccc(-c2cn3c(-c4ccc(OC)nc4)cnc3cn2)cn1 [compound 382, 3,6-bis(6-methoxy-3-pyridyl)imidazo[1,2-a]pyrazine]	20 to 50
COc1ccc(-c2cnc3cnc(-c4cccc(C(N)=O)c4)cn23)cn1 [compound 383, 3-[3-(6-methoxy-3-pyridyl)imidazo[1,2-a]pyrazin-6-yl]benzamide]	20 to 50
Nc1cccc(-c2cn3c(-c4cccc(F)c4)cnc3cn2)c1 [compound 384, 3-[3-(3-fluorophenyl)imidazo[1,2-a]pyrazin-6-yl]aniline]	20 to 50
Fc1cccc(-c2cnc3cnc(-c4ccccc4)cn23)c1 [compound 385, 3-(3-fluorophenyl)-6-phenyl-imidazo[1,2-a]pyrazine]	20 to 50
Fc1cccc(-c2cnc3cnc(-c4ccc5c(c4)OCO5)cn23)c1 [compound 386, 6-(1,3-benzodioxol-5-yl)-3-(3-fluorophenyl)imidazo[1,2-a]pyrazine]	20 to 50
Fc1cccc(-c2cnc3cnc(-c4ccc(N5CCNCC5)cc4)cn23)c1 [compound 387, 3-(3-fluorophenyl)-6-(4-piperazin-1-ylphenyl)imidazo[1,2-a]pyrazine]	10 to 20
Fc1cccc(-c2cnc3cnc(-c4ccc(Cl)cc4)cn23)c1 [compound 388, 6-(4-chlorophenyl)-3-(3-fluorophenyl)imidazo[1,2-a]pyrazine]	20 to 50
OCc1ccc(-c2cn3c(-c4cccc(F)c4)cnc3cn2)cc1 [compound 389, [4-[3-(3-fluorophenyl)imidazo[1,2-a]pyrazin-6-yl]phenyl]methanol]	20 to 50
Fc1cccc(-c2cnc3cnc(-c4cccs4)cn23)c1 [compound 390, 3-(3-fluorophenyl)-6-(2-thienyl)imidazo[1,2-a]pyrazine]	20 to 50
COc1cc(-c2cnc3cnc(-c4ccc(OCCCN(C)C)nc4)cn23)ccc1O [compound 391, 4-[6-[6-[3-(dimethylamino)propoxy]-3-pyridyl]imidazo[1,2-a]pyrazin-3-yl]-2-methoxy-phenol]	20 to 50
COc1cc(-c2cnc3cnc(-c4ccc(NCCN5CCOCC5)nc4)cn23)ccc1O [compound 392, 2-methoxy-4-[6-[6-(2-morpholinoethylamino)-3-pyridyl]imidazo[1,2-a]pyrazin-3-yl]phenol]	20 to 50
COc1cc(-c2cnc3cnc(-c4ccc(N5CCN(C)CC5)nc4)cn23)ccc1O [compound 393, 2-methoxy-4-[6-[6-(4-methylpiperazin-1-yl)-3-pyridyl]imidazo[1,2-a]pyrazin-3-yl]phenol]	20 to 50
COc1cc(-c2cnc3cnc(-c4ccc5c(c4)OCO5)cn23)ccc1O [compound 394, 4-[6-(1,3-benzodioxol-5-yl)imidazo[1,2-a]pyrazin-3-yl]-2-methoxy-phenol]	20 to 50
CCOc1cccc(-c2cn3c(-c4ccc(O)c(OC)c4)cnc3cn2)c1 [compound 395, 4-[6-(3-ethoxyphenyl)imidazo[1,2-a]pyrazin-3-yl]-2-methoxy-phenol]	50 to 100
COc1cc(-c2cnc3cnc(-c4ccc(N)nc4)cn23)ccc1O [compound 396, 4-[6-(6-amino-3-pyridyl)imidazo[1,2-a]pyrazin-3-yl]-2-methoxy-phenol]	20 to 50
COc1cc(-c2cnc3cnc(-c4cnn(C)c4)cn23)ccc1O [compound 397, 2-methoxy-4-[6-(1-methylpyrazol-4-yl)imidazo[1,2-a]pyrazin-3-yl]phenol]	50 to 100
CN(C)CCCNC(=O)c1ccc(-c2cn3c(-c4ccc5c(ccn5C)c4)cnc3cn2)cc1 [compound 398, N-[3-(dimethylamino)propyl]-4-[3-(1-methylindol-5-yl)imidazo[1,2-a]pyrazin-6-yl]benzamide]	20 to 50
Cn1ccc2cc(-c3cnc4cnc(-c5cccc(C(=O)NCCO)c5)cn34)ccc21 [compound 399, N-(2-hydroxyethyl)-3-[3-(1-methylindol-5-yl)imidazo[1,2-a]pyrazin-6-yl]benzamide]	20 to 50
COc1cc(-c2cn3c(-c4ccc5c(ccn5C)c4)cnc3cn2)ccc1O [compound 400, 2-methoxy-4-[3-(1-methylindol-5-yl)imidazo[1,2-a]pyrazin-6-yl]phenol]	20 to 50

SMILES	Emax [%]
Cn1ccc2cc(-c3cnc4cnc(-c5cccc(C(N)=O)c5)cn34)ccc21 [compound 401, 3-[3-(1-methylindol-5-yl)imidazo[1,2-a]pyrazin-6-yl]benzamide]	20 to 50
CN1CCN(C(=O)c2ccc(-c3cnc4cnc(/C=C/c5ccccc5)cn34)cc2)CC1 [compound 402, (4-methylpiperazin-1-yl)-[4-[6-[(E)-styryl]imidazo[1,2-a]pyrazin-3-yl]phenyl]methanone]	10 to 20
CS(=O)(=O)Nc1cccc(-c2cn3c(-c4ccc(Oc5ccccc5)cc4)cnc3cn2)c1 [compound 403, N-[3-[3-(4-phenoxyphenyl)imidazo[1,2-a]pyrazin-6-yl]phenyl]methanesulfonamide]	20 to 50
Cc1ccccc1-c1cnc2cnc(-c3cccc(F)c3)cn12 [compound 404, 6-(3-fluorophenyl)-3-(o-tolyl)imidazo[1,2-a]pyrazine]	10 to 20
Cc1ccccc1-c1cnc2cnc(-c3cccs3)cn12 [compound 405, 3-(o-tolyl)-6-(2-thienyl)imidazo[1,2-a]pyrazine]	10 to 20
COc1cc(-c2cn3c(-c4ccccc4Cl)cnc3cn2)ccc1O [compound 406, 4-[3-(2-chlorophenyl)imidazo[1,2-a]pyrazin-6-yl]-2-methoxy-phenol]	20 to 50
CC(C)(C)c1ccc(-c2cnc3cnc(-c4ccc(N)nc4)cn23)cc1 [compound 408, 5-[3-(4-tert-butylphenyl)imidazo[1,2-a]pyrazin-6-yl]pyridin-2-amine]	10 to 20
CC(=O)c1cccc(-c2cnc3cnc(-c4cccnc4)cn23)c1 [compound 409, 1-[3-[6-(3-pyridyl)imidazo[1,2-a]pyrazin-3-yl]phenyl]ethanone]	20 to 50
CC(=O)c1cccc(-c2cnc3cnc(-c4cccc(F)c4)cn23)c1 [compound 410, 1-[3-[6-(3-fluorophenyl)imidazo[1,2-a]pyrazin-3-yl]phenyl]ethanone]	20 to 50
CC(=O)c1cccc(-c2cnc3cnc(-c4ccc(C(=O)NCCN(C)C)cc4)cn23)c1 [compound 411, 4-[3-(3-acetylphenyl)imidazo[1,2-a]pyrazin-6-yl]-N-(2-dimethylaminoethyl)benzamide]	20 to 50
CN(C)c1ccccc1-c1cn2c(-c3cccs3)cnc2cn1 [compound 413, N,N-dimethyl-2-[3-(2-thienyl)imidazo[1,2-a]pyrazin-6-yl]aniline]	20 to 50
c1csc(-c2cnc3cnc(-c4ccncc4)cn23)c1 [compound 414, 6-(4-pyridyl)-3-(2-thienyl)imidazo[1,2-a]pyrazine]	20 to 50
c1csc(-c2cnc3cnc(-c4ccsc4)cn23)c1 [compound 415, 3-(2-thienyl)-6-(3-thienyl)imidazo[1,2-a]pyrazine]	50 to 100
c1csc(-c2cnc3cnc(-c4cc5ccccc5s4)cn23)c1 [compound 416, 6-(benzothiophen-2-yl)-3-(2-thienyl)imidazo[1,2-a]pyrazine]	50 to 100
Oc1ccc(-c2cn3c(-c4cccs4)cnc3cn2)cc1 [compound 417, 4-[3-(2-thienyl)imidazo[1,2-a]pyrazin-6-yl]phenol]	50 to 100
FC(F)(F)Oc1ccc(-c2cn3c(-c4cccs4)cnc3cn2)cc1 [compound 418, 3-(2-thienyl)-6-[4-(trifluoromethoxy)phenyl]imidazo[1,2-a]pyrazine]	20 to 50
C(=C\c1cn2c(-c3cccs3)cnc2cn1)/c1ccccc1 [compound 419, 6-[(E)-styryl]-3-(2-thienyl)imidazo[1,2-a]pyrazine]	20 to 50
O=C(NCCO)c1cccc(-c2cn3c(-c4cccs4)cnc3cn2)c1 [compound 420, N-(2-hydroxyethyl)-3-[3-(2-thienyl)imidazo[1,2-a]pyrazin-6-yl]benzamide]	20 to 50
Clc1cccc(-c2cn3c(-c4cccs4)cnc3cn2)c1 [compound 421, 6-(3-chlorophenyl)-3-(2-thienyl)imidazo[1,2-a]pyrazine]	20 to 50
OCc1ccc(-c2cn3c(-c4cccs4)cnc3cn2)cc1 [compound 422, [4-[3-(2-thienyl)imidazo[1,2-a]pyrazin-6-yl]phenyl]methanol]	20 to 50
O=C(NCCO)c1ccc(-c2cn3c(-c4cccs4)cnc3cn2)cc1 [compound 423, N-(2-hydroxyethyl)-4-[3-(2-thienyl)imidazo[1,2-a]pyrazin-6-yl]benzamide]	10 to 20
c1csc(-c2cn3c(-c4cccs4)cnc3cn2)c1 [compound 424, 3,6-bis(2-thienyl)imidazo[1,2-a]pyrazine]	50 to 100
CS(=O)(=O)Nc1cccc(-c2cn3c(-c4cccs4)cnc3cn2)c1 [compound 425, N-[3-[3-(2-thienyl)imidazo[1,2-a]pyrazin-6-yl]phenyl]methanesulfonamide]	20 to 50
